For orientation: EC50 means the concentration that produces a half-maximal response. One may read the Ki as the equilibrium dissociation constant of an inhibitor or competing ligand from its target.

Activity calls are given as the source filed them. The rule behind the calls is not given here.

This passage reports EC50 and Ki results from PubChem BioAssay AID1897 (NMMLSC, 2009).

The target of one assay is Mitogen-activated protein kinase kinase kinase 2 (Homo sapiens) + Dual specificity mitogen-activated protein kinase kinase 5 (Homo sapiens) (UniProt Q9Y2U5+Q13163). Kind of assay: MEKK2 PB1-MEK5 interaction blockers – biochemical, bead multiplex flow cytometry, wildtype, dose response (AID 1897). Particulars: MEK5-MEKK2 PB1 binding. (In flow cytometry, cells or beads pass a laser one at a time.)
Sequence of Mitogen-activated protein kinase kinase kinase 2 (Homo sapiens) + Dual specificity mitogen-activated protein kinase kinase 5 (Homo sapiens) (Q13163 whole entry, looked up): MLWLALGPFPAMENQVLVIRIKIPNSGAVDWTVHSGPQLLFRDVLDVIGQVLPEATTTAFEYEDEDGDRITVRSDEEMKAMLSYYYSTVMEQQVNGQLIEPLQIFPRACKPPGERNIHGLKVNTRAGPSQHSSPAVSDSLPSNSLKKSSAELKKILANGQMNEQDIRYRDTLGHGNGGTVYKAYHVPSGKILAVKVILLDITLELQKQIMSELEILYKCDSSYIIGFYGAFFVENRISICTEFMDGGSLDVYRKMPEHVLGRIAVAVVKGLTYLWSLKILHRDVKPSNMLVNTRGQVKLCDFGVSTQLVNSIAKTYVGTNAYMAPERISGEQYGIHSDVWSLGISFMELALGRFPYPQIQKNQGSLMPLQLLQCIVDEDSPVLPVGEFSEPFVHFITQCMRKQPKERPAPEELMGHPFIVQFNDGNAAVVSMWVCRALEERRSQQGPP
Sequence of Mitogen-activated protein kinase kinase kinase 2 (Homo sapiens) + Dual specificity mitogen-activated protein kinase kinase 5 (Homo sapiens) (Q9Y2U5 whole entry, looked up): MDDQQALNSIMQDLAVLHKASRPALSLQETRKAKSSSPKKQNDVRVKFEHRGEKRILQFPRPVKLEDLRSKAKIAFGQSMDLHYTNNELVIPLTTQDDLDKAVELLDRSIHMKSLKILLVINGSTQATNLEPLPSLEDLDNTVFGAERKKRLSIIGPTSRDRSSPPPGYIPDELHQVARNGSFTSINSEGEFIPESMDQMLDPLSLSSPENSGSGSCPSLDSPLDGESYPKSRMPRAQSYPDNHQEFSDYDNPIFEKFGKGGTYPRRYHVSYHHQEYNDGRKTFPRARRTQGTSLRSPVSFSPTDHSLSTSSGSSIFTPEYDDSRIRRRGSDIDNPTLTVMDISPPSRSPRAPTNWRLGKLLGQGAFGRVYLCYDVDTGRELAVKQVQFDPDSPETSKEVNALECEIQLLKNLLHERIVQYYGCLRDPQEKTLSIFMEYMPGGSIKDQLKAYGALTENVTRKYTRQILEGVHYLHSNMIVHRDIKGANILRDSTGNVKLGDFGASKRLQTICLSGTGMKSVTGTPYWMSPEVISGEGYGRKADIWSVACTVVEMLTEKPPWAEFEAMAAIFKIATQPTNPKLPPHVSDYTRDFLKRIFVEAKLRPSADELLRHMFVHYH
Take `FC(F)(F)c1cccc(NC(=S)N(CCCN2CCCC2)Cc2cccn2Cc2ccc(Cl)cc2)c1`: the EC50 is 5.19 µM. Still for that read-out and setting: then `CC(=O)Nc1cccc2c1C(=O)N(c1cccc(C)c1)C2=O`, with > 30 µM (inactive); and `CCOC(=O)C1=C(c2ccccc2)NC(N)=NC1c1ccc(OCc2ccc(Cl)cc2)c(OC)c1` (configuration not stated), with 0.58 µM. Turning to `COc1ccc(-c2cc(C#N)nc(N3CCNCC3)n2)cc1`, the EC50 is > 30 µM (inactive). On the same count and under the same terms, then `C#CCOCCOCCOCCNc1nc(N2CCN(C(=O)[C@H](Cc3ccc(O)cc3)n3cc([C@@H](N)C(C)CC)nn3)CC2)nc(N2CCN(C(=O)[C@H](Cc3cc4ccccc4[nH]3)n3cc([C@@H](N)Cc4ccc(O)cc4)nn3)CC2)n1` (some centres not stated), with 12.5 µM; and `CCCCCCOc1ccc(/C(C)=N/NC2=NCCN2)cc1[N+](=O)[O-]`, with 9.29 µM; and `CCCN1C(=O)/C(=C\C=C2/Sc3ccccc3N2CC)SC1=S`, with 3.03 µM. Still for that read-out and setting: to `C#CCOCCOCCOCCNc1nc(N2CCN(C(=O)C(Cc3cc4ccccc4[nH]3)n3cc(C(N)C(C)CC)nn3)CC2)nc(N2CCN(C(=O)C(Cc3cc4ccccc4[nH]3)n3cc(C(N)C(C)CC)nn3)CC2)n1` (configuration not stated) belongs 1.75 µM. Same read-out and setting: then `O=C(CCCC(=O)N(CC(=O)NC1CCCC1)C1CCCC1)Nc1ccccn1`, with > 30 µM (inactive). `CCOc1ccc(C2=C/C(=C/c3cccnc3)C(=O)O2)cc1`: the EC50 is > 30 µM (inactive). Same read-out and setting: then `C#CCOCCOCCOCCNc1nc(N2CCN(C(=O)[C@H](Cc3cc4ccccc4[nH]3)n3cc([C@@H](N)CC(C)C)nn3)CC2)nc(N2CCN(C(=O)[C@H](Cc3cc4ccccc4[nH]3)n3cc([C@@H](N)CC(C)C)nn3)CC2)n1`, with > 30 µM (inactive); and `Cc1ccc(-n2cc(CNCCCn3ccnc3C)c(-c3ccc(F)cc3)n2)cc1`, with > 30 µM (inactive); and `NC(=NCCCCCCN=C(N)/N=C(\N)Nc1ccc(Cl)cc1)/N=C(\N)Nc1ccc(Cl)cc1`, with 0.67 µM. The same measure, in the same setting: to `CCN1CCN(Cc2ccc(NC(=O)c3cc(NC(=O)C(=O)c4c[nH]c5ccccc45)cc(OC)c3)cc2C(F)(F)F)CC1` belongs 0.34 µM; to `COC(=O)c1c(C)oc(C)c1S(=O)(=O)N(Cc1ccccc1)C(C)C`, > 30 µM (inactive).

For the molecule `COc1cc(CNCCc2c[nH]c3ccccc23)ccc1OCc1ccccc1F`, the EC50 is > 30 µM (inactive). As for `O=C(Nc1ccc(Cl)cn1)c1ccc2c(Cl)c3c(nc2c1)CCC3`, the EC50 is > 30 µM (inactive). On the same count and under the same terms, to `COc1ccc(CSc2n[nH]c(C)n2)cc1[N+](=O)[O-]` belongs > 30 µM (inactive); to `COc1ccc(C2NCCc3c2[nH]c2ccccc32)cc1CN1CCc2cc(OC)c(OC)cc2C1C` (configuration not stated), 10.5 µM; to `CCC(/C=C1\Sc2ccc(OC)cc2N1CC)=C\c1sc2ccc(OC)cc2[n+]1CCCS(=O)(=O)[O-]`, 4.49 µM.

On to `CCCCCCCCCCOC(=O)Cn1c(COc2cccc(OC)c2)[n+](C)c2ccccc21`, for which the EC50 was 4.33 µM. Same read-out and setting: then `Nc1ccc(N)c(C(=O)O)c1`, with 3.78 µM. On the same count and under the same terms, to `CCN(CC)CCOC(=O)c1ccc(N/C=C(/C#N)c2nc(-c3cccc(OC)c3)cs2)cc1` belongs > 30 µM (inactive); to `C#CCOCCOCCOCCNc1nc(N2CCN(C(=O)[C@H](Cc3ccc(O)cc3)n3cc([C@@H](N)C(C)CC)nn3)CC2)nc(N2CCN(C(=O)[C@H](Cc3cc4ccccc4[nH]3)n3cc([C@@H](N)CC(C)C)nn3)CC2)n1` (some centres not stated), > 30 µM (inactive); to `C#CCOCCOCCOCCNc1nc(N2CCN(C(=O)[C@H](CCCCN)n3cc([C@@H](N)CC(C)C)nn3)CC2)nc(N2CCN(C(=O)[C@H](Cc3cc4ccccc4[nH]3)n3cc([C@@H](N)Cc4ccc(O)cc4)nn3)CC2)n1`, > 30 µM (inactive). On the same count and under the same terms, to `CCCCCc1cc(=O)oc2c(C(CCN3CCCCC3)c3ccc(OC)cc3)c(OC)cc(OC)c12` (configuration not stated) belongs > 30 µM (inactive); to `CCN1C(c2ccccc2)=C(c2ccccc2)S/C1=C/C=C1\SC(=S)N(C)C1=O`, 2.73 µM. As for `CCCCCCCCCCOC(=O)Cn1c(COc2ccc(C)cc2)[n+](C)c2ccccc21`, the concentration for a half-maximal effect (EC50) is 1.8 µM. Consider `CCc1ccc(Nc2n[n+](-c3ccccc3)c(-c3ccc(OC)c(Br)c3)s2)cc1`, for which the concentration giving a half-maximal response (EC50) was 2.85 µM.

As for `CCN(CC)CCOC(=O)c1ccc(N/C=C(/C#N)c2nc(-c3ccc(OC)c(OC)c3)cs2)cc1`, the EC50 was > 30 µM (inactive). `Cc1ccccc1OCC(O)CNC1CCC(NCC(O)COc2ccccc2C)CC1` (configuration not stated): the EC50 was > 30 µM (inactive).

In the case of `CCN1/C(=C/c2ccc3cc(C)cc(C)c3[n+]2CC)Sc2cc(C)ccc21`, the EC50 is 1.88 µM. In the case of `Cc1sc(NC(=O)c2ccccc2)c(C(c2ccccn2)N2CCN(CCO)CC2)c1C` (configuration not stated), the EC50 was > 30 µM (inactive). `CNc1nc(-c2c[nH]c3ccccc23)cs1`: the EC50 was > 30 µM (inactive). With `O=C(Nc1ccc(C2=NCCN2)cc1)c1ccc(C(=O)Nc2ccc(C3=NCCN3)cc2)c([N+](=O)[O-])c1`, the EC50 is > 30 µM (inactive). The same measure, in the same setting: to `CCN(CC)CCOC(=O)c1ccc(N/C=C(/C#N)c2nc(-c3ccc4c(c3)OCO4)cs2)cc1` belongs > 30 µM (inactive); to `C#CCOCCOCCOCCNc1nc(N2CCN(C(=O)C(Cc3ccc(O)cc3)n3cc(C(N)CC(C)C)nn3)CC2)nc(N2CCN(C(=O)C(Cc3cc4ccccc4[nH]3)n3cc(C(N)Cc4ccc(O)cc4)nn3)CC2)n1` (configuration not stated), 6.12 µM.

As to `COc1ccc(N2CC(C(=O)Nc3nnc(SCc4ccccn4)s3)CC2=O)cc1` (configuration not stated), the EC50 is > 30 µM (inactive).

For `C#CCOCCOCCOCCNc1nc(N2CCN(C(=O)[C@H]([C@@H](C)CC)n3cc([C@@H](N)CC(C)C)nn3)CC2)nc(N2CCN(C(=O)[C@H](Cc3cc4ccccc4[nH]3)n3cc([C@@H](N)CC(C)C)nn3)CC2)n1`, the concentration giving a half-maximal response (EC50) was 7.74 µM. Still for that read-out and setting: to `CCN1/C(=C/C=C/C=C/C=C/c2sc3ccccc3[n+]2CC)Sc2ccccc21` belongs > 30 µM (inactive); to `C#CCOCCOCCOCCNc1nc(N2CCN(C(=O)[C@H]([C@@H](C)CC)n3cc([C@@H](N)CO)nn3)CC2)nc(N2CCN(C(=O)[C@H](Cc3cc4ccccc4[nH]3)n3cc([C@@H](N)C(C)CC)nn3)CC2)n1` (some centres not stated), > 30 µM (inactive).

Take `CN1C(=O)/C(=C\c2ccc(-c3ccccc3)o2)SC1=S`: the EC50 is 3.51 µM.

As for `CCOC(=O)N1CCN(c2c(N3CCN(c4ccccc4F)CC3)c(=O)c2=O)CC1`, the EC50 was > 30 µM (inactive). On to `CCOc1cccc2sc(N(CCCN(C)C)C(=O)c3ccc(S(=O)(=O)N4CCc5ccccc5C4)cc3)nc12`, for which the 50% effective concentration (EC50) was 13.2 µM.

Take `Cc1cc2ccccc2n1CCNC(=O)c1ccccc1`: the 50% effective concentration (EC50) is 3.02 µM. For `CN1CCN(CC(O)COc2ccc(C34CC5CC(CC(C5)C3)C4)cc2)CC1` (configuration not stated), the EC50 is > 30 µM (inactive). Take `CCCCCc1cc(=O)oc2c(C(CCN3CCCCC3)c3ccc4c(c3)OCO4)c(OC)cc(OC)c12` (configuration not stated): the EC50 was > 30 µM (inactive). With `CCN1/C(=C/c2ccc3cc(C)ccc3[n+]2CC)Sc2cc(C)c(C)cc21`, the EC50 was 2.63 µM.

In the case of `Brc1ccc(N=C/C=C/C=C/Nc2ccc(Br)cc2)cc1`, the EC50 was > 30 µM (inactive).

Staying with this assay, now noted: MEK5-MEKK2 PB1 binding, measured here: Ki from binding competition.
Consider `CCCN1C(=O)/C(=C\C=C2/Sc3ccccc3N2CC)SC1=S`, for which the Ki worked out at 2.71 µM. As to `CCC(/C=C1\Sc2ccc(OC)cc2N1CC)=C\c1sc2ccc(OC)cc2[n+]1CCCS(=O)(=O)[O-]`, the inhibitory constant (Ki) stood at 4.01 µM. The same measure, in the same setting: to `Nc1ccc(N)c(C(=O)O)c1` belongs 3.39 µM. On to `CCN1C(c2ccccc2)=C(c2ccccc2)S/C1=C/C=C1\SC(=S)N(C)C1=O`, for which the inhibition constant Ki came to 2.44 µM. Regarding `CCN1/C(=C/c2ccc3cc(C)cc(C)c3[n+]2CC)Sc2cc(C)ccc21`, the inhibition constant Ki is 1.68 µM. As for `CN1C(=O)/C(=C\c2ccc(-c3ccccc3)o2)SC1=S`, the inhibition constant (Ki) is 3.14 µM. Still for that read-out and setting: to `Cc1cc2ccccc2n1CCNC(=O)c1ccccc1` belongs 2.7 µM; to `CCN1/C(=C/c2ccc3cc(C)ccc3[n+]2CC)Sc2cc(C)c(C)cc21`, 2.35 µM.
